Reference: the NIST ThermoML archive (doi:10.1021/acs.jced.8b00132)
“And” between values parts separate entries of the source, which are not always exact repeats. Equal entries are not always repeated.

Conditions: Liquid, transient hot wire

O=C(C(F)(F)C(F)(F)F)C(F)(C(F)(F)F)C(F)(F)F [dodecafluoro-2-methylpentan-3-one]
Conditions	thermal conductivity
242.34 K, 5849 kPa	0.06998 W/m/K
242.34 K, 5853 kPa	0.06965 W/m/K
242.35 K, 208 kPa	0.06798 W/m/K
242.35 K, 212 kPa	0.06825 W/m/K
242.58 K, 60304 kPa	0.08223 W/m/K
242.58 K, 60314 kPa	0.08199 W/m/K
242.59 K, 33710 kPa	0.0767 W/m/K
242.59 K, 50797 kPa	0.08019 W/m/K
242.59 K, 50816 kPa	0.07983 W/m/K
242.59 K, 68418 kPa	0.08363 W/m/K
242.59 K, 68434 kPa	0.08369 W/m/K
242.6 K, 33703 kPa	0.07658 W/m/K
242.6 K, 41984 kPa	0.07877 W/m/K
242.6 K, 41989 kPa	0.07848 W/m/K
242.67 K, 25698 kPa	0.07459 W/m/K
242.68 K, 25706 kPa	0.07494 W/m/K
242.77 K, 18756 kPa	0.073 W/m/K
242.77 K, 18761 kPa	0.07312 W/m/K
242.79 K, 12031 kPa	0.07146 W/m/K
242.8 K, 12030 kPa	0.07148 W/m/K
242.91 K, 5853 kPa	0.06968 W/m/K
242.91 K, 5856 kPa	0.06976 W/m/K
242.92 K, 207 kPa	0.06801 W/m/K
242.93 K, 208 kPa	0.06804 W/m/K
243.11 K, 60298 kPa	0.08226 W/m/K
243.11 K, 68406 kPa	0.084 W/m/K
243.11 K, 68416 kPa	0.08398 W/m/K
243.12 K, 60300 kPa	0.082 W/m/K
243.13 K, 50796 kPa	0.08047 W/m/K
243.13 K, 50797 kPa	0.08042 W/m/K
243.16 K, 41981 kPa	0.07861 W/m/K
243.16 K, 41982 kPa	0.07868 W/m/K
243.17 K, 33693 kPa	0.07674 W/m/K
243.17 K, 33696 kPa	0.07679 W/m/K
243.25 K, 25695 kPa	0.07494 W/m/K
243.26 K, 25691 kPa	0.07494 W/m/K
243.36 K, 18758 kPa	0.07321 W/m/K
243.36 K, 18761 kPa	0.07324 W/m/K
243.39 K, 12032 kPa	0.07131 W/m/K
243.41 K, 12030 kPa	0.07139 W/m/K
243.52 K, 5859 kPa	0.0695 W/m/K and 0.06954 W/m/K
243.55 K, 209 kPa	0.06795 W/m/K
243.56 K, 209 kPa	0.06794 W/m/K
243.69 K, 68395 kPa	0.08376 W/m/K
243.69 K, 68403 kPa	0.08352 W/m/K
243.7 K, 60284 kPa	0.08212 W/m/K
243.71 K, 60287 kPa	0.08216 W/m/K
243.73 K, 50783 kPa	0.08028 W/m/K
243.74 K, 50794 kPa	0.08029 W/m/K
243.77 K, 41976 kPa	0.07861 W/m/K
243.77 K, 41985 kPa	0.07849 W/m/K
243.8 K, 33690 kPa	0.07668 W/m/K
243.8 K, 33707 kPa	0.07668 W/m/K
271.75 K, 5167 kPa	0.06405 W/m/K
271.76 K, 5170 kPa	0.06371 W/m/K
271.8 K, 431 kPa	0.06194 W/m/K
271.81 K, 411 kPa	0.06198 W/m/K
271.99 K, 24357 kPa	0.07109 W/m/K
271.99 K, 24380 kPa	0.07115 W/m/K
272.01 K, 32229 kPa	0.0734 W/m/K
272.01 K, 32230 kPa	0.07317 W/m/K
272.03 K, 40370 kPa	0.07538 W/m/K
272.04 K, 40373 kPa	0.07501 W/m/K
272.04 K, 46123 kPa	0.07637 W/m/K
272.05 K, 11155 kPa	0.06578 W/m/K
272.05 K, 11165 kPa	0.06595 W/m/K
272.05 K, 46118 kPa	0.07672 W/m/K
272.06 K, 17558 kPa	0.06827 W/m/K
272.07 K, 17554 kPa	0.06805 W/m/K
272.15 K, 5158 kPa	0.06391 W/m/K
272.16 K, 5173 kPa	0.06421 W/m/K
272.21 K, 418 kPa	0.06216 W/m/K
272.21 K, 421 kPa	0.06256 W/m/K
272.49 K, 24363 kPa	0.06931 W/m/K
272.5 K, 32236 kPa	0.07245 W/m/K
272.5 K, 32238 kPa	0.07194 W/m/K
272.5 K, 40381 kPa	0.07419 W/m/K
272.51 K, 40379 kPa	0.07408 W/m/K
272.52 K, 46113 kPa	0.0755 W/m/K
272.52 K, 46119 kPa	0.07509 W/m/K
272.58 K, 5167 kPa	0.06402 W/m/K
272.58 K, 11163 kPa	0.0662 W/m/K
272.58 K, 17548 kPa	0.06807 W/m/K
272.58 K, 17564 kPa	0.06792 W/m/K
